Results: ChEMBL document CHEMBL5325488, “Discovery of SMD-3040 as a Potent and Selective SMARCA2 PROTAC Degrader with Strong in vivo Antitumor Activity” (J Med Chem, 2023)

How the values were obtained:
[1] = target: T1, von Hippel-Lindau disease tumor suppressor/SWI/SNF-related matrix-associated actin-dependent regulator of chromatin subfamily A member 2 (Homo sapiens, UniProt P51531+P40337); experiment: PROTAC activity at VHL/wild-type SMARCA2 in human SK-MEL-28 cells assessed as induction of SMARCA2 degradation at 0.001 to 1000 nM incubated for 24 hrs by Western blotting analysis relative to control; format: cell-based; conditions: dose 0.001-1000 nM
Target sequence in this assay (P40337 whole entry, looked up): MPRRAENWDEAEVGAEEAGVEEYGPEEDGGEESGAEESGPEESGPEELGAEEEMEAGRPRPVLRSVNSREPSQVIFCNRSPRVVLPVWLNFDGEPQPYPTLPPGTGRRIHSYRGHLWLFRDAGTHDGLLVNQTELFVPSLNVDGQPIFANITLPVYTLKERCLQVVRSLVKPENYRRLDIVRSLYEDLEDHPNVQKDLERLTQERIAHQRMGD
Target sequence in this assay (P51531 whole entry, looked up): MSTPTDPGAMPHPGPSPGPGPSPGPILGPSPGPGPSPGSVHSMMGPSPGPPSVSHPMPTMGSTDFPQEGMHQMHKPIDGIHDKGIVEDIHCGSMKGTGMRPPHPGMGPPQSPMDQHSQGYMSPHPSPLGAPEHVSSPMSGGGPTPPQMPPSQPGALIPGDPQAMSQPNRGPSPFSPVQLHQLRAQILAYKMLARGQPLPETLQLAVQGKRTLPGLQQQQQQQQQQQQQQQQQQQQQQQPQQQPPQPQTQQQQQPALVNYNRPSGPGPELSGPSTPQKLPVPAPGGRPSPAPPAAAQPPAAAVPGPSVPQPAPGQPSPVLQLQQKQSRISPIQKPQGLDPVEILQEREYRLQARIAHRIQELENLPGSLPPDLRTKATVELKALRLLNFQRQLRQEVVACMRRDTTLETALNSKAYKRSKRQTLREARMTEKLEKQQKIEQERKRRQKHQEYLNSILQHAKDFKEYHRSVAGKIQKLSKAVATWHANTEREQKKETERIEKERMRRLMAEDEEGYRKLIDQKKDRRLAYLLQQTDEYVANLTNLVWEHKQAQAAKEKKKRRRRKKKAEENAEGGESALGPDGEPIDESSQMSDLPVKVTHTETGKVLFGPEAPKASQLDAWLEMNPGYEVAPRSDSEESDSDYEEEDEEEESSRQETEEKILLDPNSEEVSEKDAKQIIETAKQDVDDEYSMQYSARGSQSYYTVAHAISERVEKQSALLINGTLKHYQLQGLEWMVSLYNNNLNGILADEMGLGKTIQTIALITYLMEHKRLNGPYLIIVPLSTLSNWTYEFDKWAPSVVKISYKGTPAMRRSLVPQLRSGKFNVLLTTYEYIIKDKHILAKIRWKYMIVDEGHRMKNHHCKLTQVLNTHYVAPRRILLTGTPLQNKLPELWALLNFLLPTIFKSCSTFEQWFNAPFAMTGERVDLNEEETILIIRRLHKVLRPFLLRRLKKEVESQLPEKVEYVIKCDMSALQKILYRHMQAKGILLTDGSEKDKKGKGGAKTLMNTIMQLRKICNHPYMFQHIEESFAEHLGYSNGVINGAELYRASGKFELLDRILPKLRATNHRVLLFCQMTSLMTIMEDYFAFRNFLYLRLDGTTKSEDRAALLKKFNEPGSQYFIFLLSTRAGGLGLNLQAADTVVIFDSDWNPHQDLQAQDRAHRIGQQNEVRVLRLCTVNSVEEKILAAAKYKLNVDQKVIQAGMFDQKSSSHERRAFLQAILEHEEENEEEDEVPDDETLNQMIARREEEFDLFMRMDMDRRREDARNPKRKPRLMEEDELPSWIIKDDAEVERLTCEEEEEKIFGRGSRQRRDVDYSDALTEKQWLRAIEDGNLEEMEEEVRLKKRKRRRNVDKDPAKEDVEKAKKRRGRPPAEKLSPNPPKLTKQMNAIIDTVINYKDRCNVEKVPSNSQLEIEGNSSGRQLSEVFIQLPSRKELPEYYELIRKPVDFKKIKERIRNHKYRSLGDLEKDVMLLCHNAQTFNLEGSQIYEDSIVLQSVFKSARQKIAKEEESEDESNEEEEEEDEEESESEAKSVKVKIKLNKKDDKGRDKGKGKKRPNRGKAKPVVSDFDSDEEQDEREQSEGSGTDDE

[2] = target: T2, von Hippel-Lindau disease tumor suppressor/SWI/SNF-related matrix-associated actin-dependent regulator of chromatin subfamily A member 4 (Homo sapiens, UniProt P51532+P40337); experiment: PROTAC activity at VHL/wild-type SMARCA4 in human SK-MEL-28 cells assessed as induction of SMARCA4 degradation incubated for 24 hrs by Western blotting analysis; format: cell-based
[3] = target: T1, von Hippel-Lindau disease tumor suppressor/SWI/SNF-related matrix-associated actin-dependent regulator of chromatin subfamily A member 2; experiment: PROTAC activity at VHL/wild-type SMARCA2 in human NCI-H838 cells assessed as induction of SMARCA2 degradation incubated for 24 hrs by Western blotting analysis; format: cell-based
Target sequence in this assay (P51531 whole entry): as the sequence (P51531 whole entry, looked up) above
Target sequence in this assay (P40337 whole entry): as the sequence (P40337 whole entry, looked up) above

[4] = target: T1, von Hippel-Lindau disease tumor suppressor/SWI/SNF-related matrix-associated actin-dependent regulator of chromatin subfamily A member 2; experiment: PROTAC activity at VHL/C-terminal HiBiT fused SMARCA2 in human HeLa cells assessed as induction of SMARCA2 degradation incubated for 1 hr by Nano-Glo HiBiT analysis; format: cell-based
Target sequence in this assay (P51531 whole entry): as the sequence (P51531 whole entry, looked up) above
Target sequence in this assay (P40337 whole entry): as the sequence (P40337 whole entry, looked up) above

[5] = target: T1, von Hippel-Lindau disease tumor suppressor/SWI/SNF-related matrix-associated actin-dependent regulator of chromatin subfamily A member 2; experiment: PROTAC activity at VHL/C-terminal HiBiT fused SMARCA2 in human HeLa cells assessed as induction of SMARCA2 degradation incubated for 6 hrs by Nano-Glo HiBiT analysis; format: cell-based
Target sequence in this assay (P51531 whole entry): as the sequence (P51531 whole entry, looked up) above
Target sequence in this assay (P40337 whole entry): as the sequence (P40337 whole entry, looked up) above

[6] = target: T1, von Hippel-Lindau disease tumor suppressor/SWI/SNF-related matrix-associated actin-dependent regulator of chromatin subfamily A member 2; experiment: PROTAC activity at VHL/C-terminal HiBiT fused SMARCA2 in human HeLa cells assessed as induction of SMARCA2 degradation at 0.0001 to 1 uM incubated for 6 hrs by Nano-Glo HiBiT analysis relative to control; format: cell-based; conditions: dose 0.0001-1 µM
Target sequence in this assay (P40337 whole entry, looked up): as above
Target sequence in this assay (P51531 whole entry, looked up): as the sequence (P51531 whole entry, looked up) above

[7] = target: T2, von Hippel-Lindau disease tumor suppressor/SWI/SNF-related matrix-associated actin-dependent regulator of chromatin subfamily A member 4; experiment: PROTAC activity at VHL/C-terminal HiBiT fused SMARCA4 in human HeLa cells assessed as induction of SMARCA4 degradation incubated for 3 hrs by Nano-Glo HiBiT analysis; format: cell-based
[8] = target: T1, von Hippel-Lindau disease tumor suppressor/SWI/SNF-related matrix-associated actin-dependent regulator of chromatin subfamily A member 2; experiment: PROTAC activity at VHL/wild-type SMARCA2 in human NCI-H838 cells assessed as induction of SMARCA2 degradation at 0.001 to 1000 nM incubated for 24 hrs by Western blotting analysis relative to control; format: cell-based; conditions: dose 0.001-1000 nM
Target sequence in this assay (P40337 whole entry, looked up): as the sequence (P40337 whole entry, looked up) above
Target sequence in this assay (P51531 whole entry, looked up): as the sequence (P51531 whole entry, looked up) above

[9] = system: NCI-H838; experiment: Antiproliferative activity against SMARCA4-deficient human NCI-H838 cells assessed as cell growth inhibition measured after 7 days by WST-8 assay; format: functional; conditions: NCI-H838, 168 h, time 7 day
[10] = system: NCI-H1944; experiment: Antiproliferative activity against SMARCA4-deficient human NCI-H1944 cells assessed as cell growth inhibition measured after 7 days by WST-8 assay; format: functional; conditions: NCI-H1944, 168 h, time 7 day
[11] = system: SK-MEL-5; experiment: Antiproliferative activity against SMARCA4-deficient human SK-MEL-5 cells assessed as cell growth inhibition measured after 7 days by WST-8 assay; format: functional; conditions: SK-MEL-5, 168 h, time 7 day
[12] = Antiproliferative activity against SMARCA4-deficient human NCI-H1568 cells assessed as cell growth inhibition measured after 7 days by WST-8 assay; format: functional; conditions: NCI-H1568, 168 h, time 7 day
[13] = system: A549; experiment: Antiproliferative activity against SMARCA4-deficient human A549 cells assessed as cell growth inhibition by measuring maximal efficacy measured after 7 days by WST-8 assay relative to control; format: functional; conditions: time 7 day
[14] = system: SK-MEL-28; experiment: Antiproliferative activity against human SK-MEL-28 cells expressing wild-type SMARCA2 assessed as cell growth inhibition by measuring maximal efficacy measured after 7 days by WST-8 assay relative to control; format: functional; conditions: time 7 day
[15] = target: T1, von Hippel-Lindau disease tumor suppressor/SWI/SNF-related matrix-associated actin-dependent regulator of chromatin subfamily A member 2; experiment: In vivo PROTAC activity at VHL/SMARCA2 in SCID mouse xenografted with human MV4-11 cells assessed as reduction of SMARCA2 level in tumor at 50 mg/kg, iv administered as single dose measured after 6 hrs by Western blotting analysis; format: ADME, organism-based; set-up: scale not given: the % may be the effect or the level left
Target sequence in this assay (P51531 whole entry): as the sequence (P51531 whole entry, looked up) above
Target sequence in this assay (P40337 whole entry): as the sequence (P40337 whole entry, looked up) above

[16] = target: T1, von Hippel-Lindau disease tumor suppressor/SWI/SNF-related matrix-associated actin-dependent regulator of chromatin subfamily A member 2; experiment: In vivo PROTAC activity at VHL/SMARCA2 in SCID mouse xenografted with human MV4-11 cells assessed as reduction of SMARCA2 level in tumor at 50 mg/kg, iv administered as single dose measured after 24 hrs by Western blotting analysis; format: ADME, organism-based; set-up: scale not given: the % may be the effect or the level left
Target sequence in this assay (P51531 whole entry): as the sequence (P51531 whole entry, looked up) above
Target sequence in this assay (P40337 whole entry): as the sequence (P40337 whole entry, looked up) above

[17] = target: T1, von Hippel-Lindau disease tumor suppressor/SWI/SNF-related matrix-associated actin-dependent regulator of chromatin subfamily A member 2; experiment: In vivo PROTAC activity at VHL/SMARCA2 in SCID mouse xenografted with human MV4-11 cells assessed as remaining activity in tumor at 50 mg/kg, iv administered as single dose measured after 6 hrs by Western blotting analysis (reference value: 100 +/- 15 % ); format: ADME, organism-based
Target sequence in this assay (P51531 whole entry): as the sequence (P51531 whole entry, looked up) above
Target sequence in this assay (P40337 whole entry): as the sequence (P40337 whole entry, looked up) above

[18] = target: T1, von Hippel-Lindau disease tumor suppressor/SWI/SNF-related matrix-associated actin-dependent regulator of chromatin subfamily A member 2; experiment: In vivo PROTAC activity at VHL/SMARCA2 in SCID mouse xenografted with human MV4-11 cells assessed as remaining activity in tumor at 50 mg/kg, iv administered as single dose measured after 72 hrs by Western blotting analysis (reference value: 100 +/- 15 % ); format: ADME, organism-based
[19] = target: T2, von Hippel-Lindau disease tumor suppressor/SWI/SNF-related matrix-associated actin-dependent regulator of chromatin subfamily A member 4; experiment: In vivo PROTAC activity at VHL/SMARCA4 in SCID mouse xenografted with human MV4-11 cells assessed as reduction of SMARCA4 level in tumor at 50 mg/kg, iv administered as single dose measured after 24 hrs by Western blotting analysis; format: ADME, organism-based; set-up: scale not given: the % may be the effect or the level left
[20] = target: T2, von Hippel-Lindau disease tumor suppressor/SWI/SNF-related matrix-associated actin-dependent regulator of chromatin subfamily A member 4; experiment: In vivo PROTAC activity at VHL/SMARCA4 in SCID mouse xenografted with human MV4-11 cells assessed as reduction of SMARCA4 level in tumor at 50 mg/kg, iv administered as single dose measured after 72 hrs by Western blotting analysis; format: ADME, organism-based; set-up: scale not given: the % may be the effect or the level left
[21] = Drug concentration in SCID mouse plasma xenografted with human MV4-11 cells at 50 mg/kg, iv measured after 2 hrs by LC-MS/MS method; format: ADME, organism-based
[22] = Drug concentration in SCID mouse plasma xenografted with human MV4-11 cells at 50 mg/kg, iv measured after 48 hrs by LC-MS/MS method; format: ADME, organism-based
[23] = Drug concentration in SCID mouse plasma xenografted with human MV4-11 cells at 50 mg/kg, iv measured after 72 hrs by LC-MS/MS method; format: ADME, organism-based
[24] = Drug concentration in SCID mouse tumor xenografted with human MV4-11 cells at 50 mg/kg, iv measured after 24 hrs by LC-MS/MS method; format: ADME, organism-based, Neoplasm; conditions: read-out: Ct
[25] = Drug concentration in SCID mouse tumor xenografted with human MV4-11 cells at 50 mg/kg, iv measured after 48 hrs by LC-MS/MS method; format: ADME, organism-based, Neoplasm; conditions: read-out: Ct
[26] = Drug concentration in SCID mouse tumor xenografted with human MV4-11 cells at 50 mg/kg, iv measured after 96 hrs by LC-MS/MS method; format: ADME, organism-based, Neoplasm; conditions: read-out: Ct
[27] = system: SK-MEL-5; experiment: Antitumor activity against SMARCA4-deficient human SK-MEL-5 cells xenografted in SCID mouse assessed as tumor growth inhibition at 50 mg/kg, iv administered twice a week measured after 32 days relative to control; format: functional; conditions: SK-MEL-5, 768 h, time 32 day, read-out: TGI
[28] = Toxicity in SCID mouse xenografted with human SK-MEL-5 cells assessed as effect on change in body weight at 25 to 50 mg/kg, iv administered twice a week measured after 32 days; format: organism-based; conditions: in vivo, 768 h, dose 25-50 mg/kg, time 32 day

T2 sequence (P51532 whole entry): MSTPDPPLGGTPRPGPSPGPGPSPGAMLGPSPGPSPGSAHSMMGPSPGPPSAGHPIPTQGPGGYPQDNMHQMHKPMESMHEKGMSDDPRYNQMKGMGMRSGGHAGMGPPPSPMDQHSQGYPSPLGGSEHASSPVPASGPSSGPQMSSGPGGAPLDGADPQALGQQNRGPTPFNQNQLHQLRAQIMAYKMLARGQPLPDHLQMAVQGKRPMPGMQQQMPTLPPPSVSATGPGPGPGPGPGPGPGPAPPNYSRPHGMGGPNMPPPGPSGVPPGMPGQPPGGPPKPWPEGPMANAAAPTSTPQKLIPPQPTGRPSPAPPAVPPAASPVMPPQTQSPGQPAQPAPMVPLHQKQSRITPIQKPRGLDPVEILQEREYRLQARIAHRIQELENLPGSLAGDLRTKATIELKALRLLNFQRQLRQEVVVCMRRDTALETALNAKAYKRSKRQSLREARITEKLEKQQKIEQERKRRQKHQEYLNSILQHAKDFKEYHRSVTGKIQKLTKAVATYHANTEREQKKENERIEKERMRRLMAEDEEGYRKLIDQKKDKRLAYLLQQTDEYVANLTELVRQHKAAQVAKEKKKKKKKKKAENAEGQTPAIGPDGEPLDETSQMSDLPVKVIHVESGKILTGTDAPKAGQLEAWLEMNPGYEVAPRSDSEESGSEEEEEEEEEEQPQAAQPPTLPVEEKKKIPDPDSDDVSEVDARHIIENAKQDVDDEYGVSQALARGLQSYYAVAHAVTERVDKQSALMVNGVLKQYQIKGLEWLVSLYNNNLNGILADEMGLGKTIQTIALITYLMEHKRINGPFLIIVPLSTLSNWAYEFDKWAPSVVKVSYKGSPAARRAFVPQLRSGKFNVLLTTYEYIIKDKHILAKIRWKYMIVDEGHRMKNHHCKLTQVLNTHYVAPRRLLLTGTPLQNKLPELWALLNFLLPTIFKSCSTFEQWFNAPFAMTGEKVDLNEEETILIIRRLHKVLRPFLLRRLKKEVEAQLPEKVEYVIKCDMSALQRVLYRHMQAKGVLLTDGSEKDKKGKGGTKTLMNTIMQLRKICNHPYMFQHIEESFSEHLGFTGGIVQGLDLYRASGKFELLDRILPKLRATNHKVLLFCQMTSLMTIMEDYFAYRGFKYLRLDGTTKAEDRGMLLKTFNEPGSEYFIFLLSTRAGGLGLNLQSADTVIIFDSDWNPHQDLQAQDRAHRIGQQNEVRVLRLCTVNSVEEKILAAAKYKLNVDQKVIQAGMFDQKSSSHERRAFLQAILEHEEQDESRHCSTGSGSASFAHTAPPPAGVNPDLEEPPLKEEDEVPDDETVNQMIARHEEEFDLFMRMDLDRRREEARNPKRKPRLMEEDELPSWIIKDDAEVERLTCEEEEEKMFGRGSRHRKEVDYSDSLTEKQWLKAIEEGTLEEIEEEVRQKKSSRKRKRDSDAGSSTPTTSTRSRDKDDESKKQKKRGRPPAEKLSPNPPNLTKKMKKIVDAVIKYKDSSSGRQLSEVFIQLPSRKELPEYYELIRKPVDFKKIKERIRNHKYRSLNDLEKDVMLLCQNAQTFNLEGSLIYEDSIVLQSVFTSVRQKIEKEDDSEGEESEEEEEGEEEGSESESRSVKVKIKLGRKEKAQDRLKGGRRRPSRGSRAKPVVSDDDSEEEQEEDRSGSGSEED
T2 sequence (P40337 whole entry): as the sequence (P40337 whole entry, looked up) above

Emax [1]: 98%
DC50 [2]: > 1000 nM
DC50 [3]: 63 nM
DC50 [4]: 250 nM
DC50 [5]: 44 nM
Emax [6]: 80%
DC50 [7]: > 3.3 µM
Emax [8]: 90%
GI50 [9]: 119 nM
GI50 [10]: 30 nM
GI50 [11]: 15 nM
Activity [15]: 70%
Activity [16]: 86%
Activity [17]: 30%
Activity [18]: 44%
Activity [19]: 29%
Activity [20]: 9%
concentration at 2 h [21]: 2730 ng/mL
concentration at 48 h [22]: 60.5 ng/mL
concentration at 72 h [23]: 6.7 ng/mL
concentration at 24 h [24]: 2960 ng/g
concentration at 48 h [25]: 978 ng/g
concentration at 96 h [26]: 560 ng/g
SMILES: Cc1ncsc1-c1ccc([C@H](C)NC(=O)[C@@H]2C[C@@H](O)CN2C(=O)[C@@H](NC(=O)[C@H]2CC[C@H](CN3CC4(CCC(n5cc(-c6cc(-c7ccccc7O)nnc6N)cn5)CC4)C3)CC2)C(C)(C)C)cc1
GI50 [12]: 8.8 nM
Imax [13]: 51%
Imax [14]: 15%
inhibition in vivo at 50 mg/kg [27]: 74%
Activity [28]: Non-Toxic
